In PMC12951562, “SH2scan: Mapping SH2 Domain-Ligand Binding Selectivity for Inhibitors and Degraders” (Journal of Medicinal Chemistry, 2026):
Non-standard residues stand in square brackets, D forms with d. Residues, ends and D or L forms follow the SMILES beside them. pY = N[C@@H](Cc1ccc(OP(=O)(O)O)cc1)C(=O)O

Columns and labels:
Assay in all cases: biochemical
Type in all cases: binding
STAP2 = target: T1, STAP2 (Homo sapiens, UniProt Q9UGK3)
T1 construct: made in house; host or cells: HEK293 (transient transfection), unpurified extract
T1 sequence (Q9UGK3 1-403): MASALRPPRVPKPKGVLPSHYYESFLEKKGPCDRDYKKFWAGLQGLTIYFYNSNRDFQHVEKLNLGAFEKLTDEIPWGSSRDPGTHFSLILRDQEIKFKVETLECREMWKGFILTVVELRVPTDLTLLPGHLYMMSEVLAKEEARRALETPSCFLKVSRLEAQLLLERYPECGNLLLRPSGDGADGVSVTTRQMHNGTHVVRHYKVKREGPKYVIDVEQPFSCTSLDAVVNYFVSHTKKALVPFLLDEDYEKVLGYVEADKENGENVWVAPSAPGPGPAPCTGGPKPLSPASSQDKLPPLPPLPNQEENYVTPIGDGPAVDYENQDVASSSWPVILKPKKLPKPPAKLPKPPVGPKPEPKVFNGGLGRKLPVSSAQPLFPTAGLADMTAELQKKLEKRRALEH

STAP1 = target: T2, STAP1 (Homo sapiens, UniProt Q9ULZ2)
T2 construct: made in house; host or cells: HEK293 (transient transfection), unpurified extract
T2 sequence (Q9ULZ2 1-295): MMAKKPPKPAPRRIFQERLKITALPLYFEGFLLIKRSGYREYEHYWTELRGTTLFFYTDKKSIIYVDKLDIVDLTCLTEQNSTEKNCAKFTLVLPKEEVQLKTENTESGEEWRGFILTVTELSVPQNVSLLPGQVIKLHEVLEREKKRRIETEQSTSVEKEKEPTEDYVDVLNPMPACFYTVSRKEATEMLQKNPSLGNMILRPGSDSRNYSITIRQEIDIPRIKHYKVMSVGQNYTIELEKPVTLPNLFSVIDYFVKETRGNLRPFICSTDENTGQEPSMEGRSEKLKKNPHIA

BLNK = target: T3, BLNK (Homo sapiens, UniProt Q8WV28)
T3 construct: the DNA-tagged SH2 domain concentrations used in this study were <0.1 nM; made in house; host or cells: HEK293 (transient transfection; unpurified extract)
T3 sequence (Q8WV28 346-453 limits assumed): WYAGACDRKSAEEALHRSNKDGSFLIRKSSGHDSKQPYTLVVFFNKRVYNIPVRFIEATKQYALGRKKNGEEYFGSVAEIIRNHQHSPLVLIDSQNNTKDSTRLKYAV

APS (SH2B2) = target: T4, APS (SH2B2) (Homo sapiens, UniProt O14492)
T4 construct: the DNA-tagged SH2 domain concentrations used in this study were <0.1 nM; made in house; host or cells: HEK293 (transient transfection; unpurified extract)

SLP76 = target: T5, SLP76 (Homo sapiens, UniProt Q13094)
T5 construct: made in house; host or cells: HEK293 (transient transfection), unpurified extract
T5 sequence (Q13094 1-533): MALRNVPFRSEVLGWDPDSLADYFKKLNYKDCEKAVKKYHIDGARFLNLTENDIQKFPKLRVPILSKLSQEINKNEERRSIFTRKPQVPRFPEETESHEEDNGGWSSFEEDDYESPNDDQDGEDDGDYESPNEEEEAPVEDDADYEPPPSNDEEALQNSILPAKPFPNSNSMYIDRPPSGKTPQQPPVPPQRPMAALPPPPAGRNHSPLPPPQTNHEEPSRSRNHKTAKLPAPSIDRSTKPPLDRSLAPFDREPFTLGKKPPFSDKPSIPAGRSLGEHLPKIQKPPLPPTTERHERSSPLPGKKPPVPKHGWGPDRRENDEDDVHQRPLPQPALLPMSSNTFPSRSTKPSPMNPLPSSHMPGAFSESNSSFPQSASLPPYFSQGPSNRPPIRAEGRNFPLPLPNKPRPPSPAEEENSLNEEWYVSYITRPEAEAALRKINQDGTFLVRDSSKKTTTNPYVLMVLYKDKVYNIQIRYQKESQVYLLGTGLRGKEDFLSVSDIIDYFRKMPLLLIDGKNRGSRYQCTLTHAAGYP

BRK = target: T6, BRK (Homo sapiens, UniProt Q13882)
T6 construct: the DNA-tagged SH2 domain concentrations used in this study were <0.1 nM; made in house; host or cells: HEK293 (transient transfection; unpurified extract)

GRB10 = target: T7, GRB10 (Homo sapiens, UniProt Q13322)
T7 construct: the DNA-tagged SH2 domain concentrations used in this study were <0.1 nM; made in house; host or cells: HEK293 (transient transfection; unpurified extract)
T7 sequence (Q13322 493-574 limits assumed): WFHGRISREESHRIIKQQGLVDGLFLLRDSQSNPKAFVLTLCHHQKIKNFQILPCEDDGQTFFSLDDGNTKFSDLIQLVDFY

ITK = target: T8, ITK (Homo sapiens, UniProt Q08881)
T8 construct: the DNA-tagged SH2 domain concentrations used in this study were <0.1 nM; made in house; host or cells: HEK293 (transient transfection, unpurified extract)
T8 sequence (Q08881 239-338 limits assumed): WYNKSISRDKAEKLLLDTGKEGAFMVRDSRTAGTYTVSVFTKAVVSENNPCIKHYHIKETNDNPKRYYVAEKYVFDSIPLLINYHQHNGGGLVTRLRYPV

MIST = target: T9, MIST (Homo sapiens, UniProt Q7Z7G1)
T9 construct: the DNA-tagged SH2 domain concentrations used in this study were <0.1 nM; made in house; host or cells: HEK293 (transient transfection, unpurified extract)
T9 sequence (Q7Z7G1 309-419 limits assumed): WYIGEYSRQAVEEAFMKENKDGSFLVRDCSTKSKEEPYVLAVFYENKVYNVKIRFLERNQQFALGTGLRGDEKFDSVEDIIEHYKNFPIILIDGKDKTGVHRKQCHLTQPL

T6 sequence (Q13882 78-170 limits assumed): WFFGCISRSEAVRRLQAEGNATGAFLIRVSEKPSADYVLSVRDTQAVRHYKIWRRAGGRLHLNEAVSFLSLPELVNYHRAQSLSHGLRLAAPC
T4 sequence (O14492 417-515 limits assumed): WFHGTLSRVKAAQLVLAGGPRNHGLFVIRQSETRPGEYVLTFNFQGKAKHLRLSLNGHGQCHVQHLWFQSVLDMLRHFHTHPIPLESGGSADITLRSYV

`CC[C@H](C)[C@H](NC(=O)[C@H](CC(C)C)NC(=O)[C@@H](NC(=O)[C@H](CC(N)=O)NC(=O)[C@H](CCC(=O)O)NC(=O)[C@H](Cc1ccc(OP(=O)(O)O)cc1)NC(=O)[C@H](CO)NC(=O)[C@H](CC(N)=O)NC(=O)[C@H](C)NC(C)=O)C(C)C)C(=O)N[C@@H](C)C(=O)N[C@@H](CCCCN)C(N)=O` (Ac-ANS[pY]ENVLIAK-NH2) showed a Kd (STAP2) of 38900 ± 7930 nM and a Kd (STAP1) of 2780 ± 615 nM.
For `CC(=O)N[C@@H](CC(=O)O)C(=O)N[C@@H](CC(=O)O)C(=O)N[C@@H](CC(=O)O)C(=O)N[C@@H](Cc1ccc(OP(=O)(O)O)cc1)C(=O)N[C@@H](CC(=O)O)C(=O)N[C@@H](CC(=O)O)C(=O)N[C@H](C(=O)N[C@@H](CC(=O)O)C(N)=O)C(C)C` [Ac-DDDpYDDVD-NH2] (Ac-DDD[pY]DDVD-NH2), the Kd (BLNK) was 137 ± 22.4 nM, the Kd (APS (SH2B2)) was 8780 ± 971 nM and the Kd (SLP76) was 1410 ± 432 nM. It also gave a Kd (BRK) of 226 ± 200 nM, a Kd (GRB10) of 1260 ± 1160 nM and a Kd (ITK) of 1450 ± 153 nM. It also gave a Kd (MIST) of 32.9 ± 6.7 nM.
